In US20100227887A1 (priority 2009, published 2010):

How the values were obtained:
human mGlu 5a receptor = target: T1, human mGlu 5a receptor (Homo sapiens, UniProt P41594); assay: [3H]MPEP competition binding on membranes of EBNA cells transfected with human mGlu 5a receptor; conditions: [3H]MPEP (2 nM) competition, 1 h at 4° C., EBNA cell membranes
T1 construct: expressed in transfected cells; host or cells: EBNA cells (transient transfection); cell membrane homogenates
Procedure: The pharmacological activity of the compounds was tested using the following method: For binding experiments, cDNA encoding human mGlu 5a receptor was transiently transfected into EBNA cells using a procedure described by Schlaeger and Christensen [Cytotechnology 15:1-13 (1998)]. Cell membrane homogenates were stored at −80° C. until the day of assay where upon they were thawed and resuspended and polytronised in 15 mM Tris-HCl, 120 mM NaCl, 100 mM KCl, 25 mM CaCl2, 25 mM MgCl2 binding buffer at pH 7.4 to a final assay concentration of 20 μg protein/well.
Saturation isotherms were determined by addition of twelve [^3H]MPEP concentrations (0.04-100 nM) to these membranes (in a total volume of 200 μl) for 1 h at 4° C. Competition experiments were performed with a fixed concentration of [^3H]MPEP (2 nM) and IC50 values of test compounds evaluated using 11 concentrations (0.3-10,000 nM). Incubations were performed for 1 h at 4° C.
At the end of the incubation, membranes were filtered onto unifilter (96-well white microplate with bonded GF/C filter preincubated 1 h in 0.1% PEI in wash buffer, Packard Bio-Science, Meriden, Conn.) with a Filtermate 96 harvester (Packard BioScience) and washed 3 times with cold 50 mM Tris-HCl, pH 7.4 buffer. Nonspecific binding was measured in the presence of 10 μM MPEP. The radioactivity on the filter was counted (3 min) on a Packard Top-count microplate scintillation counter with quenching correction after addition of 45 μl of microscint 40 (Canberra Packard S. A., Zürich, Switzerland) and shaking for 20 min.
For binding experiments the Ki values of the compounds tested are given. The Ki value is defined by the following formula: […]
in which the IC50 values are those concentrations of the compounds tested which cause 50% inhibition of the competing radioligand ([^3H]MPEP). L is the concentration of radioligand used in the binding experiment and the Kd value of the radioligand is empirically determined for each batch of membranes prepared.

T1 sequence (P41594 21-1180 isoform P41594-2 limits assumed): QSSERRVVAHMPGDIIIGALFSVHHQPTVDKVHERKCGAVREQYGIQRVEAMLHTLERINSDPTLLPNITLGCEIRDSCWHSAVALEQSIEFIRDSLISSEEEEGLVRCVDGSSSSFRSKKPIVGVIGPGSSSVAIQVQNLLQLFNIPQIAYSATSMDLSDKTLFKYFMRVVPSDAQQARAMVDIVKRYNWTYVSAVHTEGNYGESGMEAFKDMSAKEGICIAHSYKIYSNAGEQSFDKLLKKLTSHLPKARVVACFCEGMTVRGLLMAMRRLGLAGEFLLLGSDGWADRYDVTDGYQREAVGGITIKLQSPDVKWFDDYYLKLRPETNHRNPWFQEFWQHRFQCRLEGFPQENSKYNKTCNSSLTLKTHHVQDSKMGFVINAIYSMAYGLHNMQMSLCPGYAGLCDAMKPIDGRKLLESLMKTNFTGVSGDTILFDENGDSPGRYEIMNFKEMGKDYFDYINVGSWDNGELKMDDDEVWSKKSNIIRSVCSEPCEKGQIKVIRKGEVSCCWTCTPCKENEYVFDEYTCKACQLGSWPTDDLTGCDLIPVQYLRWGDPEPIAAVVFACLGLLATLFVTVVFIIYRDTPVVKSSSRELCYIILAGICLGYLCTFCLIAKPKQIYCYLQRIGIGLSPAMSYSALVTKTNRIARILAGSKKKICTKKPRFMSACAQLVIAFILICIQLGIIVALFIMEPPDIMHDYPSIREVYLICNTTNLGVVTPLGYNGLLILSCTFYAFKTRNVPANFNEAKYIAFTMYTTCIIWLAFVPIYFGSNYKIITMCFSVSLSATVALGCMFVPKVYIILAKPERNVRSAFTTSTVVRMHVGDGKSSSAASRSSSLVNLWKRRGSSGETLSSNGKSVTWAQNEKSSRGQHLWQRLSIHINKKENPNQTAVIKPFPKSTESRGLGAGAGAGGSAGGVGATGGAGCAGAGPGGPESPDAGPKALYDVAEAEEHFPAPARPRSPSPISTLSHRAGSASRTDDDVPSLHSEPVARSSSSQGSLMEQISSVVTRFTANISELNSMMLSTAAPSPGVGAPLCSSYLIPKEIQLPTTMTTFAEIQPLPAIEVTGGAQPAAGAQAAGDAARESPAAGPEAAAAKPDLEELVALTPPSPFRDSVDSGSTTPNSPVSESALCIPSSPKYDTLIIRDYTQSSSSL

Row | Structure (SMILES) | melting point | Ki (human mGlu 5a receptor)
1 | Cc1cccc(NC(=O)c2cc(C#N)cc(C)n2)c1 [Example 43, 4-Cyano-6-methyl-pyridine-2-carboxylic acid m-tolylamide] | 160 °C | 9 nM
2 | Cc1ccc(NC(=O)c2cc(C#N)cc(C)n2)nc1 [Example 5, 4-Cyano-6-methyl-pyridine-2-carboxylic acid (5-methyl-pyridin-2-yl)-amide] | 196 °C | 11 nM
3 | Cc1cc(Br)cc(C(=O)Nc2ccc(F)c(C)n2)n1 [Example 10, 4-Bromo-6-methyl-pyridine-2-carboxylic acid (5-fluoro-6-methyl-pyridin-2-yl)-amide] | 181.5 °C | 61 nM
4 | CCc1cc(C#N)cc(C(=O)Nc2ccn(C)n2)n1 [Example 24, 4-Cyano-6-ethyl-pyridine-2-carboxylic acid (1-methyl-1H-pyrazol-3-yl)-amide] | 164.5 °C | 36 nM
5 | Cc1csc(NC(=O)c2nc(C)cc(C#N)c2C)n1 [Example 30, 4-Cyano-3,6-dimethyl-pyridine-2-carboxylic acid (4-methyl-thiazol-2-yl)-amide] | 199.5 °C | 37 nM
6 | Cc1cc(C#N)c(C)c(C(=O)Nc2ccn(C)n2)n1 [Example 12, 4-Cyano-3,6-dimethyl-pyridine-2-carboxylic acid (1-methyl-1H-pyrazol-3-yl)-amide] | 180.5 °C | 143 nM
7 | Cc1cc(C#N)cc(C(=O)Nc2ccc(F)c(C)n2)n1 [Example 11] | 222 °C | 57 nM
8 | Cc1cc(C#N)cc(C(=O)Nc2ccc(Cl)cn2)n1 [Example 9, 4-Cyano-6-methyl-pyridine-2-carboxylic acid (5-chloro-pyridin-2-yl)-amide] | 233.5 °C | 8 nM
9 | Cc1cc(C#N)cc(C(=O)Nc2ccnc(Cl)c2)n1 [Example 22, 4-Cyano-6-methyl-pyridine-2-carboxylic acid (2-chloro-pyridin-4-yl)-amide] | 238.5 °C | 25 nM
10 | N#Cc1cc(CO)nc(C(=O)Nc2cccc(Cl)c2)c1 [Example 40, 4-Cyano-6-hydroxymethyl-pyridine-2-carboxylic acid (3-chloro-phenyl)-amide] | 167 °C | 44 nM
11 | Cc1cc(C#N)cc(C(=O)Nc2ccc(F)c(F)c2)n1 [Example 42, 4-Cyano-6-methyl-pyridine-2-carboxylic acid (3,4-difluoro-phenyl)-amide] | 170 °C | 117 nM
12 | Cc1cccc(NC(=O)c2cc(C#N)cc(C)n2)n1 [Example 47, 4-Cyano-6-methyl-pyridine-2-carboxylic acid (6-methyl-pyridin-2-yl)-amide] | 243.5 °C | 18 nM
13 | N#Cc1cc(C(=O)Nc2ccc(F)cn2)nc(C(F)(F)F)c1 [Example 16, 4-Cyano-6-trifluoromethyl-pyridine-2-carboxylic acid (5-fluoro-pyridin-2-yl)-amide] | 186.5 °C | 139 nM
14 | Cc1cc(Cl)cc(C(=O)Nc2cccc(Cl)n2)n1 [Example 35, 4-Chloro-6-methyl-pyridine-2-carboxylic acid (6-chloro-pyridin-2-yl)-amide] | 176 °C | 34 nM
15 | CCc1cc(C#N)cc(C(=O)Nc2ccc(F)cn2)n1 [Example 25, 4-Cyano-6-ethyl-pyridine-2-carboxylic acid (5-fluoro-pyridin-2-yl)-amide] | 183.5 °C | 11 nM
